Measurements published in ChEMBL document CHEMBL3397011, “A novel molecule with notable activity against multi-drug resistant tuberculosis” (Bioorg Med Chem Lett, 2015).

Legend:
[1] = target: T1, UDP-glucuronosyltransferase 1A6 (Homo sapiens, UniProt P19224); assay: Activation of UGT1A6 in pooled mixed-gender human liver microsomes at 50 uM preincubated at 37 degC for 3 mins before UDPGA addition by HPLC method; assay type: ADME
T1 sequence (P19224 whole entry): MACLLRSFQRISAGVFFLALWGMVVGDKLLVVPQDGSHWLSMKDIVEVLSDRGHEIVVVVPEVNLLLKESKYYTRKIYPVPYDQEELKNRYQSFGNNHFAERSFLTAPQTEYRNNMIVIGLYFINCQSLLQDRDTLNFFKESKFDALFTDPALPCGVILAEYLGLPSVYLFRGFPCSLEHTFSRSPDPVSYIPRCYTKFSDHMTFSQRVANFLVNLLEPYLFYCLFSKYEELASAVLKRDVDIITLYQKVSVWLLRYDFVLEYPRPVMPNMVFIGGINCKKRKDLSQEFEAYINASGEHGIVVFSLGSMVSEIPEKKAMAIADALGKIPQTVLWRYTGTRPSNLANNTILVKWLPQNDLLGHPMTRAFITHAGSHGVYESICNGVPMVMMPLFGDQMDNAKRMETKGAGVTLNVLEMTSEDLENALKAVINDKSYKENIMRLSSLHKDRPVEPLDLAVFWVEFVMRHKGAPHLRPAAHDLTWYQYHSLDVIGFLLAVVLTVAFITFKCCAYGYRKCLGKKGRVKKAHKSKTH

[2] = tested on: Human immunodeficiency virus 1; assay: Antiviral activity against HIV1 infected in human MAGI-R5 cells; assay type: functional, organism-based; conditions: Human immunodeficiency virus 1, MAGI-R5
Cytochrome P450 2D6 [3] = target: T2, Cytochrome P450 2D6 (Homo sapiens, UniProt P10635); assay: Inhibition of […] in pooled mixed-gender human liver microsomes using dextromethorphan substrate in presence of NADPH pre-incubated for 3 mins by HPLC-UV detection method; assay type: ADME
[4] = Toxicity against macrophages (unknown origin) assessed cell viability at 4 times MIC level after 7 days by MTT assay; assay type: cell-based, Macrophage; conditions: read-out: Activity
[5] = target: T3, UDP-glucuronosyltransferase 1A1 (Homo sapiens, UniProt P22309); assay: Drug metabolism assessed as UGT1A1-mediated compound glucuronidation in pooled mixed-gender human liver microsomes at 50 uM preincubated at 37 degC for 3 mins before UDPGA addition by HPLC method; assay type: ADME
T3 sequence (P22309 whole entry): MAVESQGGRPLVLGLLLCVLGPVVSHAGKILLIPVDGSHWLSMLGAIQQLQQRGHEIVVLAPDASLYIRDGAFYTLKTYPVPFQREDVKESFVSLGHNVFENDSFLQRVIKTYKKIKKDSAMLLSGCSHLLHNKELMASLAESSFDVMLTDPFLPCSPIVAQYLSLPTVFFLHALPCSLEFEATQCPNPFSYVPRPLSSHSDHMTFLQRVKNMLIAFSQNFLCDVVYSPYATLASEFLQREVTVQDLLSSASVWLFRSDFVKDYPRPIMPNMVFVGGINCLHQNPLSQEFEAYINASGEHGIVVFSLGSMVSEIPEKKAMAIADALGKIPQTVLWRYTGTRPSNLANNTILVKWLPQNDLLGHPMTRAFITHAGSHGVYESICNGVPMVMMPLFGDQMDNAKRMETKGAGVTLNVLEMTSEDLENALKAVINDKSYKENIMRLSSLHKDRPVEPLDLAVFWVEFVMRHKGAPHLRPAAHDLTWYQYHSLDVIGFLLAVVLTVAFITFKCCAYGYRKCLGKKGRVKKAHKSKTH

[6] = target: T4, UDP-glucuronosyltransferase 1A4 (Homo sapiens, UniProt P22310); assay: Activation of UGT1A4 in pooled mixed-gender human liver microsomes at 100 uM preincubated at 37 degC for 3 mins before UDPGA addition by HPLC method; assay type: ADME
T4 sequence (P22310 whole entry): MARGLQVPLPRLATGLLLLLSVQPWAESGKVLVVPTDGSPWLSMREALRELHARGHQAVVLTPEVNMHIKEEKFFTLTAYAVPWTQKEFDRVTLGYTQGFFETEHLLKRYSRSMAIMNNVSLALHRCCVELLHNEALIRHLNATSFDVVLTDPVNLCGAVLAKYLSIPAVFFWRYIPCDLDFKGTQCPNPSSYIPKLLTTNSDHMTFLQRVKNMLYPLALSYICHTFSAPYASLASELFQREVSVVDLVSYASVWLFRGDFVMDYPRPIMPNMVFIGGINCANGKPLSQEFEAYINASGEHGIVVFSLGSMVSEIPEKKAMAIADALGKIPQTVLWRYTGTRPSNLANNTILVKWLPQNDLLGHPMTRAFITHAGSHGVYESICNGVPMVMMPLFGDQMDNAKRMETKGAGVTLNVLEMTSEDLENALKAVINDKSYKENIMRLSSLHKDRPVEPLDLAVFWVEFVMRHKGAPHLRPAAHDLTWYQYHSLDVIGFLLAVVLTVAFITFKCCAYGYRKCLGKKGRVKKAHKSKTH

Cytochrome P450 3A4 [7] = target: T5, Cytochrome P450 3A4 (Homo sapiens, UniProt P08684); assay: Inhibition of CYP3A4 in pooled mixed-gender human liver microsomes at <25 uM using testosterone substrate in presence of NADPH pre-incubated for 3 mins by HPLC-UV detection method; assay type: ADME
Cytochrome P450 3A4 [8] = target: T5, Cytochrome P450 3A4; assay: Inhibition of CYP3A4 in pooled mixed-gender human liver microsomes using triazolam substrate in presence of NADPH pre-incubated for 3 mins by HPLC-UV detection method; assay type: ADME
[9] = target: T4, UDP-glucuronosyltransferase 1A4; assay: Activation of UGT1A4 in pooled mixed-gender human liver microsomes at 50 uM preincubated at 37 degC for 3 mins before UDPGA addition by HPLC method; assay type: ADME
[10] = target: T6, UDP-glucuronosyltransferase 2B7 (Homo sapiens, UniProt P16662); assay: Drug metabolism assessed as UGT2B7-mediated compound glucuronidation in pooled mixed-gender human liver microsomes at 50 uM preincubated at 37 degC for 3 mins before UDPGA addition by HPLC method; assay type: ADME
T6 sequence (P16662 whole entry): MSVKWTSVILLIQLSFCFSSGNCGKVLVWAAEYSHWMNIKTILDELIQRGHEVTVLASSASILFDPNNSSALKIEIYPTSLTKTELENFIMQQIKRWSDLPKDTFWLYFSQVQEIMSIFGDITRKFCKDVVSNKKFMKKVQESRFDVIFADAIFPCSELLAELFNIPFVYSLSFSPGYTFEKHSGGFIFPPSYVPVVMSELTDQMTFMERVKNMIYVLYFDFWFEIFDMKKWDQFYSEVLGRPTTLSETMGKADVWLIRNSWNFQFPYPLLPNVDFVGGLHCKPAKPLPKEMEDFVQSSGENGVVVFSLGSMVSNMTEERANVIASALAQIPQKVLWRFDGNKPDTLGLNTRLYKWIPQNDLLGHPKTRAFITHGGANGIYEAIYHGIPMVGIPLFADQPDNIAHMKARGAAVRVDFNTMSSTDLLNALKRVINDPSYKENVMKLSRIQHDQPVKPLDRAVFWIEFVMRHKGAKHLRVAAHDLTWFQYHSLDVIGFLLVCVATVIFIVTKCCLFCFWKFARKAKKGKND

Liver microsome = assay: Half life in pooled mixed-gender human liver microsomes at 50 uM in presence of NADPH pre-incubated for 3 mins before NADPH addition followed by incubation for 60 mins by reversed-phase HPLC method; assay type: ADME; conditions: 1 h
Cytochrome P450 3A4 [11] = target: T5, Cytochrome P450 3A4; assay: Activation of CYP3A4 in pooled mixed-gender human liver microsomes using triazolam substrate in presence of NADPH pre-incubated for 3 mins by HPLC-UV detection method; assay type: ADME
Cytochrome P450 3A4 [12] = target: T5, Cytochrome P450 3A4; assay: Activation of CYP3A4 in pooled mixed-gender human liver microsomes using testosterone substrate in presence of NADPH pre-incubated for 3 mins by HPLC-UV detection method; assay type: ADME
[13] = target: T3, UDP-glucuronosyltransferase 1A1; assay: Inhibition of UGT1A1 in pooled mixed-gender human liver microsomes using 4-methylumbelliferone substrate by HPLC method; assay type: ADME
Cytochrome P450 3A4 [14] = target: T5, Cytochrome P450 3A4; assay: Inhibition of CYP3A4 in pooled mixed-gender human liver microsomes using testosterone substrate in presence of NADPH pre-incubated for 3 mins by HPLC-UV detection method; assay type: ADME
[15] = target: T6, UDP-glucuronosyltransferase 2B7; assay: Inhibition of […] in pooled mixed-gender human liver microsomes using 4-methylumbelliferone substrate by HPLC method; assay type: ADME
[16] = target: T1, UDP-glucuronosyltransferase 1A6; assay: Inhibition of UGT1A6 in pooled mixed-gender human liver microsomes using 4-methylumbelliferone substrate by HPLC method; assay type: ADME
[17] = target: T4, UDP-glucuronosyltransferase 1A4; assay: Drug metabolism assessed as UGT1A4-mediated compound glucuronidation in pooled mixed-gender human liver microsomes at 50 uM preincubated at 37 degC for 3 mins before UDPGA addition by HPLC method; assay type: ADME
[18] = target: T7, UDP-glucuronosyltransferase 1A9 (Homo sapiens, UniProt O60656); assay: Activation of UGT1A9 in pooled mixed-gender human liver microsomes at 50 uM preincubated at 37 degC for 3 mins before UDPGA addition by HPLC method; assay type: ADME
T7 sequence (O60656 whole entry): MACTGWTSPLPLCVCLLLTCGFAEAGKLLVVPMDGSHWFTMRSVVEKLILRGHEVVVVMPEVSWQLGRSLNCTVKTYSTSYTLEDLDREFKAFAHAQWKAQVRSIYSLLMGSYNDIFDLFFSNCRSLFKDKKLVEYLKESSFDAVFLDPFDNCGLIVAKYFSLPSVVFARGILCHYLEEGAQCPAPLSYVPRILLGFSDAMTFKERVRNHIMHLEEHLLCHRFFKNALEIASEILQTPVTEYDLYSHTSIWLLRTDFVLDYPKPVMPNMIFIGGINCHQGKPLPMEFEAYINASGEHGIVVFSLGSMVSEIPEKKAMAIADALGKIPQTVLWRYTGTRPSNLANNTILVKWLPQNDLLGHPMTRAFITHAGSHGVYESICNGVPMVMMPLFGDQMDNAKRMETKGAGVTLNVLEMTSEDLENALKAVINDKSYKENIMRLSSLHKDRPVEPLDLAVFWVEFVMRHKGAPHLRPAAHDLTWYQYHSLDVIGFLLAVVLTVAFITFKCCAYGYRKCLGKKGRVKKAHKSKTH

Cytochrome P450 3A4 [19] = target: T5, Cytochrome P450 3A4; assay: Inhibition of CYP3A4 in pooled mixed-gender human liver microsomes at <25 uM using triazolam substrate in presence of NADPH pre-incubated for 3 mins by HPLC-UV detection method; assay type: ADME
[20] = target: T7, UDP-glucuronosyltransferase 1A9; assay: Inhibition of UGT1A9 in pooled mixed-gender human liver microsomes using 4-methylumbelliferone substrate by HPLC method; assay type: ADME
[21] = target: T1, UDP-glucuronosyltransferase 1A6; assay: Drug metabolism assessed as UGT1A6-mediated compound glucuronidation in pooled mixed-gender human liver microsomes at 50 uM preincubated at 37 degC for 3 mins before UDPGA addition by HPLC method; assay type: ADME
[22] = Dissociation constant, pKa of the compound; assay type: physicochemical
[23] = target: T4, UDP-glucuronosyltransferase 1A4; assay: Inhibition of UGT1A4 in pooled mixed-gender human liver microsomes using 4-methylumbelliferone substrate by HPLC method; assay type: ADME
Cytochrome P450 2D6 [24] = target: T2, Cytochrome P450 2D6; assay: Activation of […] in pooled mixed-gender human liver microsomes using dextromethorphan substrate in presence of NADPH pre-incubated for 3 mins by HPLC-UV detection method; assay type: ADME
[25] = target: T7, UDP-glucuronosyltransferase 1A9; assay: Drug metabolism assessed as UGT1A9-mediated compound glucuronidation in pooled mixed-gender human liver microsomes at 50 uM preincubated at 37 degC for 3 mins before UDPGA addition by HPLC method; assay type: ADME
[26] = target: T6, UDP-glucuronosyltransferase 2B7; assay: Activation of UGT2B7 in pooled mixed-gender human liver microsomes at 50 uM preincubated at 37 degC for 3 mins before UDPGA addition by HPLC method; assay type: ADME
[27] = target: T3, UDP-glucuronosyltransferase 1A1; assay: Activation of UGT1A1 in pooled mixed-gender human liver microsomes at 50 uM preincubated at 37 degC for 3 mins before UDPGA addition by HPLC method; assay type: ADME
Cytochrome P450 2D6 [28] = target: T2, Cytochrome P450 2D6; assay: Inhibition of […] in pooled mixed-gender human liver microsomes at <25 uM using dextromethorphan substrate in presence of NADPH pre-incubated for 3 mins by HPLC-UV detection method; assay type: ADME

T5 sequence (P08684 whole entry): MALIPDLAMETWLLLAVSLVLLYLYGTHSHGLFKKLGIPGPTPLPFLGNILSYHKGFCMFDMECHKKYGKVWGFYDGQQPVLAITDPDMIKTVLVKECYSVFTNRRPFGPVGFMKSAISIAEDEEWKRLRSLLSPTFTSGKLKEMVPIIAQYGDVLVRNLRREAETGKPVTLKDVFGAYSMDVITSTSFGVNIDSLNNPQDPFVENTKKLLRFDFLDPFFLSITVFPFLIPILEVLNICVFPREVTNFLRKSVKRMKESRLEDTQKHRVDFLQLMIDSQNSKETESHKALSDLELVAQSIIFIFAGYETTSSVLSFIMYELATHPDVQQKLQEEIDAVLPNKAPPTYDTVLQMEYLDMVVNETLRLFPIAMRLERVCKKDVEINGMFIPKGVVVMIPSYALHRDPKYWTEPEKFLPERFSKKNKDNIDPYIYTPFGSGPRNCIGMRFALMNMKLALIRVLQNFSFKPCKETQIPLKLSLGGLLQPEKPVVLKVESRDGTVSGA
T2 sequence (P10635 whole entry): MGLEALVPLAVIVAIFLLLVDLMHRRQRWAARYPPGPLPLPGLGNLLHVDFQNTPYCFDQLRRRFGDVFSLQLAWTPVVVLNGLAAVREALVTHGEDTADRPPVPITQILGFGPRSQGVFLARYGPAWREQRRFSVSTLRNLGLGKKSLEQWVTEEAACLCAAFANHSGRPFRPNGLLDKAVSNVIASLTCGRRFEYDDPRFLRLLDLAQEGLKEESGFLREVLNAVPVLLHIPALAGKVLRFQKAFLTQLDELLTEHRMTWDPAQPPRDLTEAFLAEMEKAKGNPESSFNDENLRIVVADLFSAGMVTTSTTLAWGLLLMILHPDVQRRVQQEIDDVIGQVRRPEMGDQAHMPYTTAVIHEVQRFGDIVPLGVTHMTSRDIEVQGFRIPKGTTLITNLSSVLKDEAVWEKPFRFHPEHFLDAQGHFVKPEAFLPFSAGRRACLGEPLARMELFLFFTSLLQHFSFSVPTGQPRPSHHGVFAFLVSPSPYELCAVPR

Structure (SMILES): O=C(/C=C(\O)C(=O)N1CCN(c2ccc(-n3cccc3)cc2)CC1)c1cc(Cc2cc(F)cc(F)c2)cn(Cc2ccccc2F)c1=O
- Activity [1]: Not Active
- IC50 [2]: 0.05 µM
- IC50 (Cytochrome P450 2D6 [3]): > 185 µM
- viability at 168 h, 4 times MIC [4]: > 85%
- Drug metabolism [5]: metabolite_notdetected
- Activity [6]: Active
- inhibition (INH) (Cytochrome P450 3A4 [7]): Not Active
- IC50 (Cytochrome P450 3A4 [8]): > 85 µM
- Activity [9]: Not Active
- Drug metabolism [10]: metabolite_notdetected
- t1/2 (Liver microsome): 14.4 h
- Activity (Cytochrome P450 3A4 [11]): Not Active
- Activity (Cytochrome P450 3A4 [12]): Not Active
- IC50 [13]: > 300 µM
- IC50 (Cytochrome P450 3A4 [14]): > 50 µM
- IC50 [15]: > 300 µM
- IC50 [16]: > 300 µM
- Drug metabolism [17]: metabolite_notdetected
- Activity [18]: Not Active
- inhibition (INH) (Cytochrome P450 3A4 [19]): Not Active
- IC50 [20]: > 300 µM
- Drug metabolism [21]: metabolite_notdetected
- pKa [22]: 9
- IC50 [23]: Not Active
- Activity (Cytochrome P450 2D6 [24]): Not Active
- Drug metabolism [25]: metabolite_notdetected
- Activity [26]: Not Active
- Activity [27]: Not Active
- inhibition (INH) (Cytochrome P450 2D6 [28]): Not Active

Structure (SMILES): Cc1nnc(C(=O)NC(C)(C)c2nc(C(=O)NCc3ccc(F)cc3)c(O)c(=O)n2C)o1 [RALTEGRAVIR]
- Drug metabolism [5]: metabolite_detected
- Drug metabolism [10]: metabolite_detected
- Drug metabolism [17]: metabolite_detected
- Drug metabolism [21]: metabolite_detected
- Drug metabolism [25]: metabolite_detected

Structure (SMILES): [H]/N=C(/N)N[C@H]1[C@H](O)[C@@H](O)[C@H](O[C@@H]2O[C@@H](C)[C@](O)(C=O)[C@H]2O[C@@H]2O[C@@H](CO)[C@H](O)[C@@H](O)[C@@H]2NC)[C@@H](N/C(N)=N\[H])[C@@H]1O [STREPTOMYCIN]
- viability at 168 h, 4 times MIC [4]: 90%
